According to paper PMC6713218, “Hyaluronic acid-functionalized bilosomes for targeted delivery of tripterine to inflamed area with enhancive therapy on arthritis” (Drug Delivery, 2019):

Assays:
[1] = system: RAW264.7 cells; assay: Cellular uptake test (intracellular Tri by HPLC); assay type: cell-based, murine; details: for Reduction in cellular uptake of HA@Tri-BLs: inhibitor or competitor added: free HA 25 μM, HUTCH-1 10 μg/mL, hypertonic sucrose 400 mM, chlorpromazine 25 μM, EIPA 50 μM, vs control without inhibitor
Procedure: The cellular uptake of Tri-loaded bilosomes were investigated in RAW264.7 cells, a murine macrophage line. The cells were cultured in a RPMI-1640 medium containing 10% FBS (Gibco, CA, USA) at 37 °C in 5% CO2. When the cells grew to 80 ∼ 90% confluence, they were eligible for the cellular uptake test. Tri solution (dissolve in 75% ethanol), Tri-BLs and HA@Tri-BLs were diluted to 10 μg/mL with the culture medium and introduced into the cell wells for coincubation. To elucidate the uptake mechanism of HA@Tri-BLs, the uptake of HA@Tri-BLs was specially measured in the presence of various cytosis inhibitors or competitor, including hypertonic sucrose (400 mM), chlorpromazine (25 μM), simvastatin (5 μM), genistein (200 μM), free HA (25 μM), HUTCH-1 (10 μg/mL), EIPA (50 μM) and Lantraculin A (2.5 μM) (Deng et al., [2017]). The intracellular drug concentration was determined using HPLC by lysing the cells with RIPA lysis buffer and corrected by the protein content with BCA protein assay kit.

[2] = Intra-articular pharmacokinetics and biodistribution in arthritic rats; assay type: in vivo, Sprague–Dawley (SD) rats
[3] = Water solubility; assay type: physicochemical
[4] = Plasma pharmacokinetics in arthritic rats; assay type: in vivo; details: Sprague-Dawley, rat, iv, i.v. 10 mg/kg, mean ± SD
Procedure: The pharmacokinetics and tissue distribution of free Tri, Tri-BLs and HA@Tri-BLs were studied in arthritic rats. Sprague–Dawley (SD) rats weighing 250 ± 20 g were used to establish the arthritic model. The rats were acclimatized for 20 days in a standard animal room and provided with food and water ad libitum. On the 21st day, the rats were received injection of Freund’s complete adjuvant (FCA) containing 10 mg/mL of Mycobacterium tuberculosis (Sigma-Aldrich) at the right foot (Jia and He, [2016]). […] The established arthritic rats were intravenously injected with Tri solution (dissolved in 75% ethanol solution and diluted with deionized water), Tri-BLs and HA@Tri-BLs via the jugular vein at a dose of 10 mg/kg. After administration, aliquots of blood (∼250 μL) were continuously sampled from the caudal vein into heparinized tubes at predetermined intervals.
Another three groups of arthritic rats were applied for biodistribution study to analyze the in vivo drug distribution of Tri solution, Tri-BLs and HA@Tri-BLs. At 0.5, 1, 2 and 4 h after injection, […] were sacrificed, and the heart, liver, spleen, lung, and kidney as well as the joint were excised or harvested. The drug in the blood and tissue samples was extracted twice with ethyl acetate from the prepared plasma and tissue homogenates (Zhang et al., [2014]). The extracted drug solution was then condensed and reconstituted in 50 μL of methanol for HPLC analysis with gossypol as an internal standard. The experimental protocols settled were reviewed and approved by the Animal Care and Use Committee of Chengdu University of Traditional Chinese Medicine.

CCN(c1nc(N)c(C(=O)NC(=N)N)nc1Cl)C(C)C [EIPA, ethylisopropyl amiloride]
Reduction in cellular uptake of HA@Tri-BLs [1]: inhibited the cellular uptake of HA@Tri-BLs to different extents

CC1=C(O)C(=O)C=C2C1=CC=C1[C@@]2(C)CC[C@@]2(C)[C@@H]3C[C@](C)(C(=O)O)CC[C@]3(C)CC[C@]12C [Tri solution, Tripterine]
Cmax ([2]; Sprague-Dawley, rat, iv, arthritic rats, i.v. 10 mg/kg, joint, mean ± SD, n = 6): 652 ± 146 ng/mL
AUC(0-t) ([2]; Sprague-Dawley, rat, iv, arthritic rats, i.v. 10 mg/kg, joint, mean ± SD, n = 6, read-out: AUC0−t in the joint): 1470 ± 402 ng·h/mL
AUC(0-inf) ([2]; Sprague-Dawley, rat, iv, arthritic rats, i.v. 10 mg/kg, joint, read-out: AUC0–∞ pertinent to the joints): 1470 ng·h/mL
Biodistribution of Tri in organs ([2]; arthritic rats, 0.5, 1, 2 and 4 h after injection): high distribution in the organs of heart and kidney besides the plasma
Cellular uptake of Tri (intracellular Tri content) ([1]; 10 μg/mL, three incubation times): minimal uptake level
Water-solubility [3]: extremely poor water-solubility
AUC(0-inf) ([4]; n = 6): 35900 ± 530 ng·h/mL
half-life ([4]; n = 6): 6.15 ± 0.22 h
clearance ([4]; n = 6, read-out: CL (total drug clearance from plasma) (converted)): 4.65 mL/min
Cmax ([4]; n = 6, read-out: Cmax (maximum plasma concentration)): 22600 ± 710 ng/mL
MRT ([4]; n = 6, read-out: MRT (mean residence time)): 7.07 ± 0.767 h
Vd ([4]; n = 6, read-out: V (apparent volume of distribution)): 1.97 ± 0.35 L

CN(C)CCCN1c2ccccc2Sc2ccc(Cl)cc21 [chlorpromazine, Chlorpromazine]
Reduction in cellular uptake of HA@Tri-BLs [1]: inhibited the cellular uptake of HA@Tri-BLs to different extents

OC[C@H]1O[C@@](CO)(O[C@H]2O[C@H](CO)[C@@H](O)[C@H](O)[C@H]2O)[C@@H](O)[C@@H]1O [hypertonic sucrose, sucrose]
Reduction in cellular uptake of HA@Tri-BLs [1]: inhibited the cellular uptake of HA@Tri-BLs to different extents

hyaluronic acid [free HA]
Reduction in cellular uptake of HA@Tri-BLs [1]: 47.5%
